The experiment relates to SMARTCAR-MTH1-wt-HiBiT (Jurkat.7 cells). The experiment can be described thus: HiBit Lytic Assay (HiBit DC50, MTH1 degraders of Table 2). It counts as cell-based, human. To be noted: Jurkat.7 SMARTCAR-MTH1-wt-HiBiT cells, compound treatment time 4 hr, 11-point half log dose response. The method in brief:
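Jurkat.7 cells expressing SMARTCAR-MTH1-wt-HiBiT were treated at 37° C with 11-point half-log dilutions (top final 1000 nM or 833 nM, duplicates, 0.1% DMSO). Remaining HiBiT-tagged protein was read by Nano-Glo HiBiT lytic luminescence, normalized to media-only and DMSO controls.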
`COc1ccc(CNc2c(C(=O)NC3CC3)cnc3cc(OC)c(-c4ccc(C(=O)NCCCCn5cc(CNc6cccc7c6C(=O)N(C6CCC(=O)NC6=O)C7=O)nn5)nc4)cc23)cc1` (centres unmarked) [Compound 395, N-cyclopropyl-6-[6-[4-[4-[[[2-(2,6-dioxo-3-piperidyl)-1,3-dioxo-isoindolin-4-yl]amino]methyl]triazol-1-yl]butylcarbamoyl]-3-pyridyl]-7-methoxy-4-[(4-methoxyphenyl)methylamino]quinoline-3-carboxamide] displayed a 50% degradation concentration (DC50) below 100 nM.

The molecule `COc1cc2ncc(C(=O)NC3CC3)c(Nc3ccccc3)c2cc1-c1ccc(C(=O)NCCCCn2cc(CNc3cccc4c3C(=O)N(C3CCC(=O)NC3=O)C4=O)nn2)nc1` (centres unmarked) [Compound 396, 4-anilino-N-cyclopropyl-6-[6-[4-[4-[[[2-(2,6-dioxo-3-piperidyl)-1,3-dioxo-isoindolin-4-yl]amino]methyl]triazol-1-yl]butylcarbamoyl]-3-pyridyl]-7-methoxy-quinoline-3-carboxamide] yielded a DC50 below 100 nM.

As to `CNc1c(C(=O)NC2CC2)cnc2cc(OC)c(-c3ccc(C(=O)NCCCCn4cc(CNc5cccc6c5C(=O)N(C5CCC(=O)NC5=O)C6=O)nn4)nc3)cc12` (centres unmarked) [Compound 397, N-cyclopropyl-6-[6-[4-[4-[[[2-(2,6-dioxo-3-piperidyl)-1,3-dioxo-isoindolin-4-yl]amino]methyl]triazol-1-yl]butylcarbamoyl]-3-pyridyl]-7-methoxy-4-(methylamino)quinoline-3-carboxamide], the DC50 was below 100 nM.

Molecule `COc1cc2ncc(C(=O)NC3CC3)c(N)c2cc1-c1ccc(C(=O)NCCCCn2cc(CNc3cccc4c3C(=O)N(C3CCC(=O)NC3=O)C4=O)nn2)nc1` (centres unmarked) [Compound 398, 4-amino-N-cyclopropyl-6-[6-[4-[4-[[[2-(2,6-dioxo-3-piperidyl)-1,3-dioxo-isoindolin-4-yl]amino]methyl]triazol-1-yl]butylcarbamoyl]-3-pyridyl]-7-methoxy-quinoline-3-carboxamide] came in with a half-maximal degradation concentration (DC50) below 100 nM.

In turn, `CNc1c(C(=O)NC2CC2)cnc2cc(F)c(-c3ccc(C(=O)NCCCCCCCc4cnc5c(c4)CN(C4CCC(=O)NC4=O)C5=O)c(F)c3)cc12` (centres unmarked) [Compound 401, N-cyclopropyl-6-[4-[7-[6-(2,6-dioxo-3-piperidyl)-7-oxo-5H-pyrrolo[3,4-b]pyridin-3-yl]heptylcarbamoyl]-3-fluoro-phenyl]-7-fluoro-4-(methylamino)quinoline-3-carboxamide] registered a DC50 below 100 nM.

Consider `CNc1c(C(=O)NC2CC2)cnc2cc(F)c(-c3ccc(C(=O)NCCCCCCCCc4cnc5c(c4)CN(C4CCC(=O)NC4=O)C5=O)c(F)c3)cc12` (centres unmarked) [Compound 405, N-cyclopropyl-6-[4-[8-[6-(2,6-dioxo-3-piperidyl)-7-oxo-5H-pyrrolo[3,4-b]pyridin-3-yl]octylcarbamoyl]-3-fluoro-phenyl]-7-fluoro-4-(methylamino)quinoline-3-carboxamide], for which the 50% degradation concentration (DC50) was below 100 nM.

Regarding `CNc1c(C(=O)NC2CC2)cnc2cc(F)c(-c3ccc(C(=O)NCCCCCCCCc4ccc5c(n4)CN(C4CCC(=O)NC4=O)C5=O)c(F)c3)cc12` (centres unmarked) [Compound 408, N-cyclopropyl-6-[4-[8-[6-(2,6-dioxo-3-piperidyl)-5-oxo-7H-pyrrolo[3,4-b]pyridin-2-yl]octylcarbamoyl]-3-fluoro-phenyl]-7-fluoro-4-(methylamino)quinoline-3-carboxamide], the DC50 was below 100 nM.

For the molecule `CNc1c(C(=O)NC2CC2)cnc2cc(C(F)(F)F)c(-c3ccc(C(=O)NCCCCCCCCc4ccc5c(n4)CN(C4CCC(=O)NC4=O)C5=O)c(F)c3)cc12` (centres unmarked) [Compound 409, N-cyclopropyl-6-[4-[8-[6-(2,6-dioxo-3-piperidyl)-5-oxo-7H-pyrrolo[3,4-b]pyridin-2-yl]octylcarbamoyl]-3-fluoro-phenyl]-4-(methylamino)-7-(trifluoromethyl)quinoline-3-carboxamide], the DC50 was below 100 nM.

Regarding `CNc1c(C(=O)NC2CC2)cnc2cc(F)c(-c3ccc(C(=O)NCCCCn4cc(CNc5cccc6c5C(=O)N(C5CCC(=O)NC5=O)C6=O)nn4)c(F)c3)cc12` (centres unmarked) [Compound 411, N-cyclopropyl-6-[4-[4-[4-[[[2-(2,6-dioxo-3-piperidyl)-1,3-dioxo-isoindolin-4-yl]amino]methyl]triazol-1-yl]butylcarbamoyl]-3-fluoro-phenyl]-7-fluoro-4-(methylamino)quinoline-3-carboxamide], the DC50 is below 100 nM.

`CNc1c(C(=O)NC2CC2)cnc2cc(F)c(-c3ccc(C(=O)NCCCCn4cc(COc5cccc6c5C(=O)N(C5CCC(=O)NC5=O)C6=O)nn4)c(F)c3)cc12` (centres unmarked) [Compound 412, N-cyclopropyl-6-[4-[4-[4-[[2-(2,6-dioxo-3-piperidyl)-1,3-dioxo-isoindolin-4-yl]oxymethyl]triazol-1-yl]butylcarbamoyl]-3-fluoro-phenyl]-7-fluoro-4-(methylamino)quinoline-3-carboxamide] had a DC50 below 100 nM.

The molecule `O=C1CCC(N2C(=O)c3cccc(OCc4cn(CCCCNC(=O)c5ccc(-c6cc7c(Nc8ccccc8)c(C(=O)NC8CC8)cnc7cc6F)cc5F)nn4)c3C2=O)C(=O)N1` (centres unmarked) [Compound 413, 4-anilino-N-cyclopropyl-6-[4-[4-[4-[[2-(2,6-dioxo-3-piperidyl)-1,3-dioxo-isoindolin-4-yl]oxymethyl]triazol-1-yl]butylcarbamoyl]-3-fluoro-phenyl]-7-fluoro-quinoline-3-carboxamide] gave a DC50 below 100 nM.

`COc1cc2ncc(C(=O)NC3CC3)c(Nc3ccccc3)c2cc1-c1ccc(C(=O)NCCCCn2cc(COc3cccc4c3C(=O)N(C3CCC(=O)NC3=O)C4=O)nn2)c(F)c1` (centres unmarked) [Compound 414, 4-anilino-N-cyclopropyl-6-[4-[4-[4-[[2-(2,6-dioxo-3-piperidyl)-1,3-dioxo-isoindolin-4-yl]oxymethyl]triazol-1-yl]butylcarbamoyl]-3-fluoro-phenyl]-7-methoxy-quinoline-3-carboxamide] showed a half-maximal degradation concentration (DC50) below 100 nM.

`O=C1CCC(N2C(=O)c3cccc(OCc4cn(CCCCNC(=O)c5ccc(-c6cc7c(Nc8ccccc8)c(C(=O)NC8CC8)cnc7cc6C(F)(F)F)cc5F)nn4)c3C2=O)C(=O)N1` (centres unmarked) [Compound 415, 4-anilino-N-cyclopropyl-6-[4-[4-[4-[[2-(2,6-dioxo-3-piperidyl)-1,3-dioxo-isoindolin-4-yl]oxymethyl]triazol-1-yl]butylcarbamoyl]-3-fluoro-phenyl]-7-(trifluoromethyl)quinoline-3-carboxamide] gave a 50% degradation concentration (DC50) below 100 nM.

Regarding `CNc1c(C(=O)NC2CC2)cnc2cc(F)c(-c3ccc(C(=O)NCCCCNC(=O)CCc4cccc5c4CN(C4CCC(=O)NC4=O)C5=O)c(F)c3)cc12` (centres unmarked) [Compound 419, N-cyclopropyl-6-[4-[4-[3-[2-(2,6-dioxo-3-piperidyl)-1-oxo-isoindolin-4-yl]propanoylamino]butylcarbamoyl]-3-fluoro-phenyl]-7-fluoro-4-(methylamino)quinoline-3-carboxamide], the DC50 was below 100 nM.

`CNc1c(C(=O)NC2CC2)cnc2cc(C(F)(F)F)c(-c3ccc(C(=O)NCCCCn4cc(C5(Nc6cccc7c6C(=O)N(C6CCC(=O)NC6=O)C7=O)CC5)nn4)c(F)c3)cc12` (centres unmarked) [Compound 421, N-cyclopropyl-6-[4-[4-[4-[1-[[2-(2,6-dioxo-3-piperidyl)-1,3-dioxo-isoindolin-4-yl]amino]cyclopropyl]triazol-1-yl]butylcarbamoyl]-3-fluoro-phenyl]-4-(methylamino)-7-(trifluoromethyl)quinoline-3-carboxamide] displayed a DC50 below 100 nM.

Consider `O=C(CNc1cccc2c1C(=O)N(C1CCC(=O)NC1=O)C2=O)NCCCCNC(=O)c1ccc(-c2cc3c(NC45CC(C4)C5)c(C(=O)NC4CC4)cnc3cc2F)cc1F` (centres unmarked) [Compound 424, 4-(3-bicyclo[1.1.1]pentanylamino)-N-cyclopropyl-6-[4-[4-[[2-[[2-(2,6-dioxo-3-piperidyl)-1,3-dioxo-isoindolin-4-yl]amino]acetyl]amino]butylcarbamoyl]-3-fluoro-phenyl]-7-fluoro-quinoline-3-carboxamide], for which the half-maximal degradation concentration (DC50) is below 100 nM.

Take `CC(NC(=O)CCCCNC(=O)CNc1cccc2c1C(=O)N(C1CCC(=O)NC1=O)C2=O)c1ccc(-c2cc3c(Nc4ccccc4)c(C(=O)NC4CC4)cnc3cc2F)cc1F` (centres unmarked) [Compound 429, 4-anilino-N-cyclopropyl-6-[4-[1-[5-[[2-[[2-(2,6-dioxo-3-piperidyl)-1,3-dioxo-isoindolin-4-yl]amino]acetyl]amino]pentanoylamino]ethyl]-3-fluoro-phenyl]-7-fluoro-quinoline-3-carboxamide]: the DC50 is below 100 nM.

In turn, `CNc1c(C(=O)NC2CC2)cnc2cc(C(F)(F)F)c(-c3ccc(C(=O)NCCCCn4cc(C(C)Nc5cccc6c5C(=O)N(C5CCC(=O)NC5=O)C6=O)nn4)c(F)c3)cc12` (centres unmarked) [Compound 430, N-cyclopropyl-6-[4-[4-[4-[1-[[2-(2,6-dioxo-3-piperidyl)-1,3-dioxo-isoindolin-4-yl]amino]ethyl]triazol-1-yl]butylcarbamoyl]-3-fluoro-phenyl]-4-(methylamino)-7-(trifluoromethyl)quinoline-3-carboxamide] showed a 50% degradation concentration (DC50) below 100 nM.

With `CNc1c(C(=O)NC2CC2)cnc2cc(C(F)(F)F)c(-c3ccc(C(=O)NCCCCn4cc(C(C)Nc5cccc6c5C(=O)N(C5CCC(=O)NC5=O)C6=O)nn4)nc3)cc12` (centres unmarked) [Compound 431, N-cyclopropyl-6-(6-((4-(4-(1-((2-(2,6-dioxopiperidin-3-yl)-1,3-dioxoisoindolin-4-yl)amino)ethyl)-1H-1,2,3-triazol-1-yl)butyl)carbamoyl)pyridin-3-yl)-4-(methylamino)-7-(trifluoromethyl)quinoline-3-carboxamide], the DC50 was below 1000 nM.

Regarding `COc1cc2ncc(C(=O)NC3CC3)c(Nc3ccccc3)c2cc1-c1ccc(C(=O)NCCCCn2cc(C(C)Nc3cccc4c3C(=O)N(C3CCC(=O)NC3=O)C4=O)nn2)c(F)c1` (centres unmarked) [Compound 432, N-cyclopropyl-6-(4-((4-(4-(1-((2-(2,6-dioxopiperidin-3-yl)-1,3-dioxoisoindolin-4-yl)amino)ethyl)-1H-1,2,3-triazol-1-yl)butyl)carbamoyl)-3-fluorophenyl)-7-methoxy-4-(phenylamino)quinoline-3-carboxamide], the DC50 is below 100 nM.

For the origin of these results see patent publication US20210198256A1, “COMPOUNDS FOR THE DEGRADATION OF BRD9 OR MTH1” (C4 Therapeutics, Inc., priority 2018, published 2021).
